Reference: patent US20110251188A1, “ACENAPHTHO HETEROCYCLE COMPOUNDS, CYCLODEXTRIN INCLUSION COMPOUNDS AND COMPLEXES, AND USES IN THE MANUFACTURES OF BH3 PROTEIN ANALOGUE, BCL-2 FAMILY PROTEIN INHIBITORS THEREOF” (DALIAN UNIVERSITY OF TECHNOLOGY, priority 2008, published 2011)

Assays:
Mcl-1 [1] = test: Western blotting, inhibition (downregulation) of Mcl-1 in tumor cells, Example 23; format: cell-based; settings: for inhibition against Mcl-1: Western blotting, tumor cells
Experimental: (§1) The interest protein was detected by the corresponding antibody. The expression of the interest protein in the cells was detected by horseradish peroxidase-labeled secondary antibodies in combination with ECL coloration method. […] The concentration of the protein bands in the Western images were carried out semiquantitative analysis and normalization treatment with KODAK Gel Logic 1500 imaging system software.

Bcl-2 [2] = test: Western blotting, inhibition (downregulation) of Bcl-2 in tumor cells, Example 23; format: cell-based; settings: for inhibition against Bcl-2: Western blotting, tumor cells
Experimental: as §1

Mcl-1 [3] = test: Western blotting, compounds compared with cyclodextrin inclusion compounds and complexes, Example 24; format: cell-based; settings: Table 8; 10 μM or equivalent of inclusion compound, 24 hours
Experimental: (§2) The cells were inoculated in a 6-well plate (2×10^5 cells/well). In the compound group, the compound 3-thiomorpholinyl-8-oxo-8H-acenaphtho[1,2-b]pyrrole-9-carbonitrile was dissolved into DMSO until the final concentration reached 10 μM. In the inclusion group, γ-cyclodextrin inclusion, which had been dissolved into water and was equivalent to 10 μM of the compound, was added thereinto. 24 hours later, the cells were washed with PBS for three times, then the cell sample was collected and cracked with 1×10^6/50 μl cell lysis solution (62.5 mM Tris-HCL pH 6.8; 2% SDS; 10% glycerol; 50 mM DTT; 0.01% bromphenol blue) at low temperature, then the solution was centrifuged and the protein supernatant was collected. The sample was boiled at 100° C. for 5 minutes and then was separated by electrophoresis on 12% SDS-PAGE and transferred. The interest protein was detected by the corresponding antibody. The expression of the interest protein in the cells was detected by horseradish peroxidase-labeled secondary antibodies in combination with ECL coloration method. […] The concentration of the protein bands in the Western figures were carried out semiquantitative analysis and normalization treatment with KODAK Gel Logic 1500 imaging system software.

Bcl-2 [4] = test: as above; format: cell-based; settings: Table 9; 10 μM or equivalent of inclusion compound, 24 hours
Experimental: as §2

[5] = tested on: hepatoma carcinoma cells H22; test: in vivo tumor model, subcutaneous H22 tumor in Kunming mice; settings: for tumor inhibition rate: experimental group 2: peritoneal injection of DMSO solution, 0.3 mg/kg BW every other day, 10 days, tumor volume on the fortieth day
Experimental: The Kunming mice (in China) were randomly divided into groups, with 10 mice in each group. The cultivated hepatoma carcinoma cells H22 were inoculated subcutaneously in the oxter of the mice with 200 μL/mouse. After bearing the cancer cells for five days, the subcutaneous tumor was formed. Then the compound 3-thiomorpholinyl-8-oxo-8H-acenaphtho[1,2-b]pyrrole-9-carbonitrile and γ-cyclodextrin inclusion compound thereof were given by peritoneal injection, and the compound to be detected included by γ-cyclodextrin was given by oral administration. The detection conditions comprise:
Blank control group: the mice were not treated in any manner after the bearing cancer;
Control group (1): the mice were given a peritoneal injection of DMSO solution every other day after the bearing cancer, 10 days in total;
Control group (2): the mice were given a peritoneal injection of cyclodextrin solution every other day after the bearing cancer, 10 days in total;
Experimental group (1): the mice were given a peritoneal injection of DMSO solution equivalent to 0.03 mg/kg BW compound every other day after the bearing cancer, 10 days in total;
Experimental group (2): the mice were given a peritoneal injection of DMSO solution equivalent to 0.3 mg/kg BW compound every other day after the bearing cancer, 10 days in total;
Experimental group (3): the mice were given a peritoneal injection of inclusion compound water solution equivalent to 0.3 mg/kg BW compound every other day after the bearing cancer, 10 days in total;
Experimental group (4): the mice were given an intragastric administration of inclusion compounds water solution equivalent to 0.3 mg/kg BW compound every other day after the bearing cancer, 10 days in total;
During the experimental period, the length-diameter (a) and short diameter (b), which was perpendicular to the length-diameter, of the tumor were detected twice every week. The gross tumor volume was determined according to the formula: ½ab^2. The survival time of the animal was observed. The tumor inhibition rate was calculated by the tumor volume on the fortieth day.

GST-Bcl-2 protein = test: fluorescence polarization assay, competitive binding against FAM-Bid peptide; settings: GST-Bcl-2 40 nM, FAM-Bid 5 nM, 4 hours of incubation; read-out: competitive binding constant (Ki)
Experimental: A Bid BH3 peptide (amino acids: 79-99: […]) having 21 amino acids was synthesized and marked with 6-carboxyfluorescein N-succinimidyl ester (FAM) as fluorescent tag (FAM-Bid) at the N-terminal. The reaction system used in the competitive binding experiment was GST-Bcl-2 protein (40 nM) or Mcl-1 protein, which was dissolved in the reaction buffer (100 mM K3PO4, pH 7.5; 100 μg/ml bovine γ albumin; 0.02% sodium azide) together with FAM-Bid polypeptide (5 nM). In a 96-well plate, 100 μL of the reaction system was added into each well. Then 1 μL different concentration of 3-thiomorpholinyl-8-oxo-8H-acenaphtho[1,2-b]pyrrole-9-carbonitrile mother solution to be detected dissolved in DMSO was added thereinto until the final concentration met the experimental design requirements. Meanwhile, two control groups were established, one with the reaction system only contains Bcl-2 or Mcl-1 and FAM-Bid (equivalent to 0% inhibition rate), the other with the reaction system only containing FAM-Bid peptide. After 4 hours of incubation, the 96-well plate was detected by enzyme-labelled meter. The fluorescent polarization value (mP) was tested at […]. Ki value was deduced according to calculation formula. The competitive binding constant between the compound and Bcl-2 was 310 nM.

MCF-7 cells = test: cytotoxicity depending on BAX/BAK, MTT, MCF-7 cells with or without BAX/BAK interfering plasmid; format: cell-based; settings: MCF-7 cells, 48 hours, MTT
Experimental: 3 ng of BAX/BAK interfering plasmid was transfected into MCF-7 cells by using calcium phosphate coprecipitation method, 24 hours later, the cells were collected. The expressions after the BAX and BAK proteins interfered with RNA was detected by Western, and the cell groups without plasmid transfection were treated similarly and were set as the control group. The transfected cells were inoculated in a 96-well plate (1×10^5 cells/well), the control experiment of the cell group without plasmid transfection was carried out in parallel. The compound 3-thiomorpholinyl-8-oxo-8 H-acenaphtho[1,2-b]pyrrole-9-carbonitrile to be detected was added thereinto according to the concentration gradient designed before the experiment. 48 hours later, the cellular vitality was detected by MTT. The experimental results were shown in FIG. 6, Gossypol as nonspecific BH3 analogue was treated in parallel.

[6] = biological target: T1, interaction between Bcl-2 and Bax (Homo sapiens, UniProt P10415); test: intracellular fluorescence polarization energy transfer (FRET), Hela cells transfected with Bcl-2-CFP and Bax-YFP; format: cell-based
T1 construct: expressed in transfected cells; host or cells: Hela cells
Experimental: 24 hours later (please refer to FIG. 2), the cells were washed with PBS for three times. The fluorescence value was detected by GENIOS fluorescence enzyme-labelled meter (TECAN, Swiss). In time-dependent experiment, the transfected cells were inoculated in a 6-well plate, after that, 40 μM of the compound was added thereinto. 3, 6 and 24 hours later (FIG. 3), the fluorescence intensities were detected by plate reader. As for the cell group in which only Bcl-2-CFP plasmid was transfected, the values at 475 nm emission wave length and 433 nm excitation wave length were recorded. As for the cell group in which only Bax-YFP plasmid was transfected, the values at 527 nm emission wave length and 505 nm excitation wave length were recorded. […] The ratio of fluorescence intensity at 527 nm and 475 nm emission wave lengths was FRET. The FRET for the control group in which the plasmid was solely transfected was set as 1.0. […] The cellular vitality was detected by MTT method.
Wherein the concentration and time meant that the detected compound interfered with the interaction between Bcl-2 and Bax at the concentration for the time period.

T1 sequence (P10415 whole entry): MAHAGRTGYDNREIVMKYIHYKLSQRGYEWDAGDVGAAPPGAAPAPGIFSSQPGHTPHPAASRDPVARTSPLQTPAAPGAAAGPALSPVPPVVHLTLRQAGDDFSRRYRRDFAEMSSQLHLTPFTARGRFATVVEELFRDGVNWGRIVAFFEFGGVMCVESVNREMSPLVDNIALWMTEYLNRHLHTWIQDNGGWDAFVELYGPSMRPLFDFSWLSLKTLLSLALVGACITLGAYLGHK

Row | SMILES | downregulation of Mcl-1 protein, semiquantitative analysis (band concentration, control = 1) (Mcl-1 [1]; 6 hours) | downregulation of Mcl-1 protein, semiquantitative analysis (band concentration, control = 1) (Mcl-1 [1]; 12 hours) | downregulation of Mcl-1 protein, semiquantitative analysis (band concentration, control = 1) (Mcl-1 [1]; 18 hours) | downregulation of Mcl-1 protein, semiquantitative analysis (band concentration, control = 1) (Mcl-1 [1]; 24 hours) | inhibition against Mcl-1 (Mcl-1 [1]) | downregulation of Bcl-2 protein, semiquantitative analysis (band concentration, control = 1) (Bcl-2 [2]; 2 hours) | downregulation of Bcl-2 protein, semiquantitative analysis (band concentration, control = 1) (Bcl-2 [2]; 6 hours) | inhibition against Bcl-2 (Bcl-2 [2]) | downregulation of Mcl-1 protein, semiquantitative analysis (band concentration, control = 1) (Mcl-1 [3]) | downregulation of Bcl-2 protein, semiquantitative analysis (band concentration, control = 1) (Bcl-2 [4]) | tumor inhibition rate [5] | Ki (GST-Bcl-2 protein) | dependence of cytotoxicity on BAX/BAK (MCF-7 cells) | average life (survival time) of the animal ([5]; compound group, control group 28±2.1 days) | Time for which the compound interfered with the interaction between Bcl-2 and Bax ([6]; goes with the concentration of E11) | Concentration at which the compound interfered with the interaction between Bcl-2 and Bax ([6]; goes with the time of E12)
1 | N#CC1=C2C(=NC1=O)c1ccc(OC3CCOCC3)c3cccc2c13 [4-(tetrahydro-2H-pyranyl-4-oxo)-8-oxo-8H-acenaphtho[1,2-b]pyrrole-9-carbonitrile] | 0.99 | 0.99 | 0.61 | 0.29 | had the inhibition against Bcl-2 and Mcl-1 proteins | 0.71 | 0.38 | had the inhibition against Bcl-2 and Mcl-1 proteins | 0.80 | 0.77 | about 40% | – | – | – | – | –
2 | N#CC1=C2C(=NC1=O)c1cccc3c(N4CCSCC4)ccc2c13 [3-thiomorpholinyl-8-oxo-8H-acenaphtho[1,2-b]pyrrole-9-carbonitrile] | – | – | – | – | had the inhibition against these two proteins | – | – | had the inhibition against these two proteins | – | – | 22.3% | 310 nM | cytotoxicity of absolute dependence on BAX/BAK | 33 ± 3.1 days | 3 h | 2 µM
